Laboratory results as given in ChEMBL document CHEMBL4402545, “Subtype Selective γ-Aminobutyric Acid Type A Receptor (GABAAR) Modulators Acting at the Benzodiazepine Binding Site: An Update” (J Med Chem, 2020).

What was measured:
[1] = Displacement of [3H]-flumazenil from human GABAA alpha2beta3gamma2 expressed in HEK293 cell membranes measured after 2 hrs by liquid scintillation counting method
[2] = molecular target: T1, Gamma-aminobutyric acid receptor subunit alpha-1 (Homo sapiens) (UniProt P14867); assay: Binding affinity to GABA-A alpha1 (unknown origin) assessed as increase in induced current relative to control
T1 sequence (whole entry): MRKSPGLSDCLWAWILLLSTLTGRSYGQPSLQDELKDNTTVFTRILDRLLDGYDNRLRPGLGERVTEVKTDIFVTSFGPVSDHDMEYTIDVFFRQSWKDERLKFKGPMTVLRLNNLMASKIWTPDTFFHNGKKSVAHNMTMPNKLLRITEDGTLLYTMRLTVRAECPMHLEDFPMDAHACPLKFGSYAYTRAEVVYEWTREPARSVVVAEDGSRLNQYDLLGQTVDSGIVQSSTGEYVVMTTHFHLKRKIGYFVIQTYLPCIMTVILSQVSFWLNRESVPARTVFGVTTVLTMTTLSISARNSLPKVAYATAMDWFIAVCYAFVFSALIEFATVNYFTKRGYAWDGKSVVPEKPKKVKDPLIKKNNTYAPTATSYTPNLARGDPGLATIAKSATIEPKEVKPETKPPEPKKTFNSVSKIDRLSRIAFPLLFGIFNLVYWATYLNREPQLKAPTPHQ

[3] = molecular target: T2, Gamma-aminobutyric acid receptor subunit alpha-2 (Homo sapiens) (UniProt P47869); assay: Binding affinity to GABA-A alpha2 (unknown origin) assessed as increase in induced current relative to control
T2 sequence (whole entry): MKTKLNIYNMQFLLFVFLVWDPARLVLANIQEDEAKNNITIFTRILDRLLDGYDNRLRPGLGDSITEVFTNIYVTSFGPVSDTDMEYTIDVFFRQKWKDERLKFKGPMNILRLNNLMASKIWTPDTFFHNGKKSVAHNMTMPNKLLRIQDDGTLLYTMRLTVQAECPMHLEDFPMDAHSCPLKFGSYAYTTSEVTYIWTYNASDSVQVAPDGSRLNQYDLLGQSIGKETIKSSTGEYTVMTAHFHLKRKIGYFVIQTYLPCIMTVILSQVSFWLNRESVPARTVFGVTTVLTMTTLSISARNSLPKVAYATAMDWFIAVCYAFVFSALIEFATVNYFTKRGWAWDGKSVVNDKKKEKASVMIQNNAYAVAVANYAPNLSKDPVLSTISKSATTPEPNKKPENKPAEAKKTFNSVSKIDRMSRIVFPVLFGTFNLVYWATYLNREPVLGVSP

[4] = molecular target: T3, Gamma-aminobutyric acid receptor subunit alpha-3 (Homo sapiens) (UniProt P34903); assay: Binding affinity to GABA-A alpha3 (unknown origin) assessed as increase in induced current relative to control
T3 sequence (whole entry): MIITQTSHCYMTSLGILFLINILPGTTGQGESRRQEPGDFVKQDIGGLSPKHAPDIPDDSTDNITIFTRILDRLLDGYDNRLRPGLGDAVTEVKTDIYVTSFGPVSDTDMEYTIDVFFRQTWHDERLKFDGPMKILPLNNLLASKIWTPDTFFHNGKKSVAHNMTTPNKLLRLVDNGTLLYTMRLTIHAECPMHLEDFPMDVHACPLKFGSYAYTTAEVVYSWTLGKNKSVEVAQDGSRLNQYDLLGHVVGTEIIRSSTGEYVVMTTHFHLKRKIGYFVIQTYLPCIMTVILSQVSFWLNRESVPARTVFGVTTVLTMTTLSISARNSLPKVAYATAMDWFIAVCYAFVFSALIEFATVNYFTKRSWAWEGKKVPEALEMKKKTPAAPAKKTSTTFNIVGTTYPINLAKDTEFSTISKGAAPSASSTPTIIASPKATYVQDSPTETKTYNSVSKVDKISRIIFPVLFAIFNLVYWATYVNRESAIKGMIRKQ

[5] = molecular target: T4, Gamma-aminobutyric acid receptor subunit alpha-5 (Homo sapiens) (UniProt P31644); assay: Binding affinity to GABA-A alpha5 (unknown origin) assessed as increase in induced current relative to control
T4 sequence (whole entry): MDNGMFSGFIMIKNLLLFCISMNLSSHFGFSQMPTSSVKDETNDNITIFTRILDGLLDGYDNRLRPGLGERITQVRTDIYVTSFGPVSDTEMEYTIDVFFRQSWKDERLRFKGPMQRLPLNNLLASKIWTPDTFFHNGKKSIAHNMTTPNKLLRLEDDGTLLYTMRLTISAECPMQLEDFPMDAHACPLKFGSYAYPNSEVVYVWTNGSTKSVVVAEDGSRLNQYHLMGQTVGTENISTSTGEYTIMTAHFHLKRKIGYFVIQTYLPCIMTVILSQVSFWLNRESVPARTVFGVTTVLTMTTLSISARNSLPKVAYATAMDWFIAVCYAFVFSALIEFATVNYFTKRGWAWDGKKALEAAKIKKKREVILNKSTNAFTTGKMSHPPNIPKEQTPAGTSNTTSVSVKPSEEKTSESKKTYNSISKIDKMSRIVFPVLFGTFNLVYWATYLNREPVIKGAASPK

Rattus norvegicus [6] = assay: In vivo receptor occupancy at GABAA receptor in po dosed Sprague-Dawley rat assessed as forebrain concentration causing 50% reduction in [3H]-flumazenil receptor labeling after 1 hr by scintillation counting method; assay type: functional
Rattus norvegicus [7] = assay: In vivo receptor occupancy at GABAA receptor in po dosed Sprague-Dawley rat assessed as spinal cord concentration causing 50% reduction in [3H]-flumazenil receptor labeling after 1 hr by scintillation counting method; assay type: functional
Rattus norvegicus [8] = assay: In vivo receptor occupancy at GABAA receptor in po dosed Sprague-Dawley rat assessed as cerebellum concentration causing 50% reduction in [3H]-flumazenil receptor labeling after 1 hr by scintillation counting method; assay type: functional
[9] = molecular target: T1, Gamma-aminobutyric acid receptor subunit alpha-1 (Homo sapiens); assay: Positive allosteric modulation of GABAA alpha1 (unknown origin) relative to control
[10] = molecular target: T2, Gamma-aminobutyric acid receptor subunit alpha-2 (Homo sapiens); assay: Positive allosteric modulation of GABAA alpha2 (unknown origin) relative to control
[11] = Intrinsic clearance in human liver microsomes; assay type: ADME, Microsome; details: read-out: CLH
[12] = Half life in rat at 1 mg/kg, po; assay type: ADME, organism-based; details: in vivo
[13] = Half life in human at 0.04 to 100 mg, po; assay type: ADME; details: in vivo
Homo sapiens [14] = assay: In vivo receptor occupancy GABAA receptor in human assessed as whole brain concentration causing reduction in [11C]flumazenil receptor labeling at 10 mg after […] by PET method relative to control; assay type: functional
Homo sapiens [15] = assay: In vivo receptor occupancy GABAA receptor in human assessed as whole brain concentration causing reduction in [11C]flumazenil receptor labeling at 65 mg after […] by PET method relative to control; assay type: functional
[16] = molecular target: T5, GABA-A receptor; alpha-1/beta-3/gamma-2 (Homo sapiens, UniProt P14867+P18507+P28472); assay: Displacement of [3H]-flumazenil from human GABAA alpha1beta3gamma2 expressed in Ltk cells; assay type: cell-based
T5 sequence (P14867 whole entry): T1 sequence (whole entry)
T5 sequence (P18507 whole entry): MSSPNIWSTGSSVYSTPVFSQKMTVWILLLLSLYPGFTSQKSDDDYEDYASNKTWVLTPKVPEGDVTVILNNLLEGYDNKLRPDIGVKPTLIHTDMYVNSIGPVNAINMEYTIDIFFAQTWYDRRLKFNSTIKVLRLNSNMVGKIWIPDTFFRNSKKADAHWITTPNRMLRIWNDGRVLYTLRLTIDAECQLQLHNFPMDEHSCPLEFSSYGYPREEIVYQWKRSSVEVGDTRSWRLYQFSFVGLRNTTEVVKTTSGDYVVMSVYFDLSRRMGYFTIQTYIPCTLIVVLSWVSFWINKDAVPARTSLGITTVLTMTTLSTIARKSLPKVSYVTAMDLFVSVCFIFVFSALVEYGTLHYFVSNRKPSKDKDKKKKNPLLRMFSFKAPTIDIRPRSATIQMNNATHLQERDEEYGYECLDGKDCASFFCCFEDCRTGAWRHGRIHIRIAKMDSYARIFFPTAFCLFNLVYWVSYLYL
T5 sequence (P28472 whole entry): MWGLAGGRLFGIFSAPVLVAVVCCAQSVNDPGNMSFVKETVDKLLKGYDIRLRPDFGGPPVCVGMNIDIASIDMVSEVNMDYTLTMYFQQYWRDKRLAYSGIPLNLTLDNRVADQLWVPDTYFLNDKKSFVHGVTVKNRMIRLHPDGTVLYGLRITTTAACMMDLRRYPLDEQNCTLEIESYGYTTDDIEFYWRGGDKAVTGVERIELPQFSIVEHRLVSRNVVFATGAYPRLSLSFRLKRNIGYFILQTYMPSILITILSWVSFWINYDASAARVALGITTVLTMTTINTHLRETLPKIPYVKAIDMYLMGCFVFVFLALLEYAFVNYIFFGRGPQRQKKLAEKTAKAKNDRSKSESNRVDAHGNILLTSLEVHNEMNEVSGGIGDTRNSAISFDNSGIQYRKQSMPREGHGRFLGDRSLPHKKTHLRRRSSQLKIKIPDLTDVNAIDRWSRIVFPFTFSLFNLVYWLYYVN

[17] = molecular target: T6, GABA-A receptor; alpha-3/beta-3/gamma-2 (Homo sapiens, UniProt P18507+P28472+P34903); assay: Displacement of [3H]-flumazenil from human GABAA alpha3beta3gamma2 expressed in Ltk cells; assay type: cell-based
T6 sequence (P18507 whole entry): T5 sequence (P18507 whole entry)
T6 sequence (P28472 whole entry): T5 sequence (P28472 whole entry)
T6 sequence (P34903 whole entry): T3 sequence (whole entry)

[18] = molecular target: T7, GABA-A receptor; alpha-5/beta-3/gamma-2 (Homo sapiens, UniProt P18507+P28472+P31644); assay: Displacement of [3H]-flumazenil from human GABAA alpha5beta3gamma2 expressed in Ltk cells; assay type: cell-based
T7 sequence (P18507 whole entry): T5 sequence (P18507 whole entry)
T7 sequence (P28472 whole entry): T5 sequence (P28472 whole entry)
T7 sequence (P31644 whole entry): T4 sequence (whole entry)

[19] = Displacement of [3H]-flumazenil from human GABAA alpha2beta3gamma2 expressed in Ltk cells; assay type: cell-based
[20] = molecular target: GABA-A receptor; alpha-1/beta-3/gamma-2 (Homo sapiens) (UniProt P14867+P18507+P28472); assay: Positive allosteric modulation of recombinant human GABAA alpha1beta3gamma2 expressed in Ltk cells assessed as […] current response by whole cell patch clamp method relative to chlordiazepoxide; assay type: cell-based
Homo sapiens [21] = species: Homo sapiens; assay: Positive allosteric modulation of recombinant human GABAA alpha2beta3gamma2 expressed in Ltk cells assessed as […] current response by whole cell patch clamp method relative to chlordiazepoxide; assay type: cell-based
[22] = molecular target: GABA-A receptor; alpha-3/beta-3/gamma-2 (Homo sapiens) (UniProt P18507+P28472+P34903); assay: Positive allosteric modulation of recombinant human GABAA alpha3beta3gamma2 expressed in Ltk cells assessed as […] current response by whole cell patch clamp method relative to chlordiazepoxide; assay type: cell-based
[23] = molecular target: GABA-A receptor; alpha-5/beta-3/gamma-2 (Homo sapiens) (UniProt P18507+P28472+P31644); assay: Positive allosteric modulation of recombinant human GABAA alpha5beta3gamma2 expressed in Ltk cells assessed as […] current response by whole cell patch clamp method relative to chlordiazepoxide; assay type: cell-based
Rattus norvegicus [24] = assay: In vivo receptor occupancy at GABAA receptor in po dosed Sprague-Dawley rat assessed as brain concentration causing 50% reduction in [3H]-flumazenil receptor labeling by scintillation counting method; assay type: functional

Question: What does the source list for `CCn1cnc2c(-c3ccc(F)c(-c4ccc(S(=O)(=O)CC)cc4OC)c3)cnnc21` [DARIGABAT]?
Answer: Ki [1]: 2.92 nM; fold change (FC) [2]: 0.11; fold change (FC) [3]: 0.35; fold change (FC) [4]: 0.49; fold change (FC) [5]: 0.7; Occ50 (Rattus norvegicus [6]): 0.3 to 1 mg/kg; Occ50 (Rattus norvegicus [7]): 0.3 to 1 mg/kg; Occ50 (Rattus norvegicus [8]): 0.3 to 1 mg/kg; Activity [9]: < 20%; Activity [10]: > 50%; microsomal CLint [11]: < 20 µL/min/mg; half-life [12]: 5.5 h; half-life [13]: 6 to 8.9 h; Occ (Homo sapiens [14]): 69%; Occ (Homo sapiens [15]): 89%

Question: With `Cn1ncnc1COc1nn2c(-c3cc(F)ccc3F)nnc2cc1C(C)(C)C` as the molecule, how does the fold change (FC) [2] read?
Answer: Its fold change (FC) is 0.02.

Question: And the fold change (FC) [3]?
Answer: The fold change (FC) was 0.43.

Question: And the fold change (FC) [4]?
Answer: Its fold change (FC) is 0.43.

Question: What about the fold change (FC) [5] of the same molecule?
Answer: Its fold change (FC) is 0.39.

Question: And the Ki [16]?
Answer: The Ki was 0.79 nM.

Question: What about the Ki [17] of the same molecule?
Answer: Its Ki is 0.67 nM.

Question: And the Ki [18]?
Answer: Its Ki is 2.25 nM.

Question: With `Cn1ncnc1COc1nn2c(-c3c(F)cccc3F)nnc2cc1C1CCC1` as the molecule, how does the Ki [16] read?
Answer: Its Ki is 0.22 nM.

Question: What about the Ki [19] of the same molecule?
Answer: The Ki was 0.4 nM.

Question: And the Ki [17]?
Answer: Its Ki is 0.21 nM.

Question: And the Ki [18]?
Answer: The Ki was 0.23 nM.

Question: What about the fold change (FC) [20] of the same molecule?
Answer: The fold change (FC) was 0.18.

Question: And the fold change (FC) (Homo sapiens [21])?
Answer: The fold change (FC) was 0.23.

Question: What about the fold change (FC) [22] of the same molecule?
Answer: The fold change (FC) was 0.45.

Question: And the fold change (FC) [23]?
Answer: Its fold change (FC) is 0.18.

Question: What about the Occ50 (Rattus norvegicus [24]) of the same molecule?
Answer: The Occ50 was 2.2 mg/kg.
